From patent US12491170B2, “Stable treprostinil prodrugs” (United Therapeutics Corporation, priority 2020, dated 2025)
Where two headings read alike, the source gives them in different places.

Key:
[1] = dog
[2] = rat
[3] = Stability in cryopreserved hepatocytes, rat
Experimental: (§1) Mixed-gender human cryopreserved hepatocytes, male Sprague-Dawley rat cryopreserved hepatocytes, and male Beagle dog cryopreserved hepatocytes were purchased from XenoTech. The hepatocytes were thawed and prepared according to the vendor's instructions, pooled into Krebs Henseleit buffer (KHB, pH 7.4), and kept on ice prior to the experiments. […] The final DMSO content in the incubation mixture was ≤0.1%. […] Aliquots of the test article were withdrawn (n=1) at 0, 15, 30, 60, and 120 minutes. […] Aliquots of 7-HC were withdrawn (n=1) at 0 and 15 minutes. The reaction was immediately terminated by adding two volumes of ice-cold acetonitrile (ACN) to the test article samples and three volumes of ACN containing internal standard to the positive control samples. The samples were then mixed and centrifuged to precipitate proteins. An aliquot of the supernatant was then diluted with water and analyzed by LC-MS/MS against calibration standards prepared in a matched matrix. […] All test article samples were analyzed for the dosed prodrugs as well as the drug, treprostinil. The test article concentration was compared to the concentration at time 0 to determine the percent of test article remaining at each time point. Half-lives and clearance values were calculated using GraphPad software, fitting to a single-phase exponential decay equation.

[4] = Stability in cryopreserved hepatocytes, human
Experimental: as §1

[5] = Stability in liver microsomes, human
Experimental: (§2) Mixed-gender human liver microsomes, male Sprague-Dawley rat liver microsomes, and male Beagle dog liver microsomes were purchased from XenoTech. The reaction mixture, minus NADPH, was prepared as described below. […] An aliquot of the reaction mixture (without cofactor) was equilibrated in a shaking water bath at 37° C. for 5 minutes. The reaction was initiated by the addition of cofactor, and the mixture was incubated in a shaking water bath at 37° C. Aliquots (200 μL) were withdrawn at 0, 10, 20, 30, and 60 minutes. Test article samples were immediately combined with 400 μL of ice-cold acetonitrile (ACN) to terminate the reaction. […] The samples were then mixed and centrifuged to precipitate proteins. Aliquots of the supernatant were removed, diluted 1:1 into distilled water containing internal standard, and analyzed by LC-MS/MS against calibration standards prepared in a matched matrix. All samples were analyzed for the dosed prodrugs as well as the drug, treprostinil. The test article concentration was compared to the concentration at time 0 to determine the percent of test article remaining at each time point. Half-lives and clearance were calculated using GraphPad software, fitting to a single-phase exponential decay equation.
(§3) • Liver Microsomes 0.5 mg/mL • NADPH (cofactor) 1 mM • Potassium Phosphate, pH 7.4 100 mM • Magnesium Chloride 5 mM • Test Article 1 μM

[6] = Stability in cryopreserved hepatocytes, dog
Experimental: as §1

[7] = Stability in liver microsomes, dog
Experimental: as §2, §3

[8] = Stability in liver microsomes, rat
Experimental: as §2, §3

[9] = Hydrolysis of prodrugs to treprostinil at pH 6, 7, 8 and 40 C; type: physicochemical
Excerpt: Tables 24, 25 and 26 present data for hydrolysis of selected treprostinil prodrugs at pH 6, 7 and 8, respectively, and 40 C.

[10] = Stability in human subcutaneous skin homogenate; details: Skin Homogenate, Human
Experimental: The pool of skin homogenate was prepared by combining equal volumes of three lots that were tested in the initial skin homogenate lot assessment experiments.
A stock solution of calcein-AM was first prepared at 5 mM in DMSO, followed by a serial dilution into methanol at a concentration of 100 μM. 495 μL of skin homogenate was thawed and warmed to 37° C. A 5 μL aliquot of the 100 μM calcein-AM solution was spiked into the skin homogenate, for a final calcein-AM dosing concentration of 1 μM. After briefly mixing, 150 μL aliquots were removed in triplicate and transferred to 96-well Falcon plates. The plates were placed onto a Thermomixer and maintained at 37° C., with gentle shaking for the duration of the experiment. At each time point (0, 15, 30, 60, and 120 minutes), the plate was removed from the Thermomixer and transferred to a FLUOstar® plate reader, and the formation of calcein (Sigma) was monitored by fluorescence (490/515 nm). Calibration standards of calcein were prepared in distilled water by serial dilutions of a calcein DMSO stock at final concentrations ranging from 1 μM to 1 nM. All samples and standards were read concurrently (Table 13).
For each of the test articles, 495 μL of skin homogenate was added to triplicate centrifuge tubes. To each tube, 5 μL of a 100 μM solution of test article was added, for a final test article dosing concentration of 1 μM. The tubes were placed onto a Thermomixer and maintained at 37° C. with gentle shaking for the duration of the experiment. At each time point (0, 30, 60, and 120 minutes), a 100 μL aliquot was removed from each tube and combined with 200 μL of acetonitrile to stop the stability reaction. The tubes were mixed and centrifuged at 3000 rpm for 10 minutes. Aliquots of supernatant were removed and diluted 1:1 with distilled water containing internal standard (2 μM treprostinil-d4). Calibration standards for the treprostinil analysis were prepared for each test article in a surrogate matrix (supernatant from a mixture of 1:2 human plasma:acetonitrile), at concentrations ranging from 1 μM to 1 nM. Calibration standards were also diluted 1:1 with distilled water containing internal standard. The disappearance of each individual test article was monitored, as well as the formation of treprostinil (Table 14 and Table 15).

Structure (SMILES): CCCCCC(CCC1C(O)CC2Cc3c(cccc3OCC(=O)O)CC21)OC(=O)OC (centres unmarked) [IV]
- AUC [1]: 55.95 µmol·min/L
- AUC [2]: 49.70 µmol·min/L
- AUC ([3]; rat): 70.03 µmol·min/L
- AUC ([4]; human): 39.76 µmol·min/L
- AUC ([5]; human): 16.85 µmol·min/L
- AUC ([6]; dog): 47.99 µmol·min/L

Structure (SMILES): CCCCCC(CCC1C(O)CC2Cc3c(cccc3OCC(=O)O)CC21)OC(=O)c1ccc(OC(F)(F)F)cc1 (centres unmarked) [LXIII]
- AUC [1]: 14.33 µmol·min/L
- AUC [2]: 4.12 µmol·min/L
- Trep Concentration 0 min [7]: 0.104 µM
- Trep Concentration 10 min [7]: 0.16 µM
- Trep Concentration 20 min [7]: 0.222 µM
- Trep Concentration 30 min [7]: 0.243 µM
- Trep Concentration 60 min [7]: 0.342 µM
- Trep Concentration 0 min [8]: 0.0393 µM
- Trep Concentration 10 min [8]: 0.0539 µM
- Trep Concentration 20 min [8]: 0.0653 µM
- Trep Concentration 30 min [8]: 0.0747 µM
- Trep Concentration 60 min [8]: 0.0824 µM
- Trep Concentration 0 min [5]: 0.12 µM
- Trep Concentration 10 min [5]: 0.184 µM
- Trep Concentration 20 min [5]: 0.24 µM
- Trep Concentration 30 min [5]: 0.268 µM
- Trep Concentration 60 min [5]: 0.275 µM
- AUC ([5]; human): 14.33 µmol·min/L

Structure (SMILES): CCCCCC(CCC1C(O)CC2Cc3c(cccc3OCC(=O)O)CC21)OC(=O)c1ccc(O)cc1 (centres unmarked) [Prodrug LXVIII]
- Hydrolysis to treprostinil, % Area, t = 1 week ([9]; pH 6, 40 C.): 0.00 % Area
- Hydrolysis to treprostinil, % Area, t = 2 weeks ([9]; pH 6, 40 C.): 0.00 % Area
- Hydrolysis to treprostinil, % Area, t = 3 weeks ([9]; pH 6, 40 C.): 0.00 % Area
- Hydrolysis to treprostinil, % Area, t = 1 week ([9]; pH 7, 40 C.): 0.00 % Area
- Hydrolysis to treprostinil, % Area, t = 2 weeks ([9]; pH 7, 40 C.): 0.00 % Area
- Hydrolysis to treprostinil, % Area, t = 3 weeks ([9]; pH 7, 40 C.): 0.00 % Area
- Hydrolysis to treprostinil, % Area, t = 1 week ([9]; pH 8, 40 C.): 0.00 % Area
- Hydrolysis to treprostinil, % Area, t = 2 weeks ([9]; pH 8, 40 C.): 0.00 % Area
- Hydrolysis to treprostinil, % Area, t = 3 weeks ([9]; pH 8, 40 C.): 0.00 % Area

Structure (SMILES): CCCCCC(CCC1C(O)CC2Cc3c(cccc3OCC(=O)O)CC21)OC(=O)c1ccc(O)c(O)c1 (centres unmarked) [Prodrug LXVI]
- Hydrolysis to treprostinil, % Area, t = 1 week ([9]; pH 6, 40 C.): 0.47 % Area
- Hydrolysis to treprostinil, % Area, t = 2 weeks ([9]; pH 6, 40 C.): 1.2 % Area
- Hydrolysis to treprostinil, % Area, t = 3 weeks ([9]; pH 6, 40 C.): 1.9 % Area
- Hydrolysis to treprostinil, % Area, t = 1 week ([9]; pH 7, 40 C.): 0.05 % Area
- Hydrolysis to treprostinil, % Area, t = 2 weeks ([9]; pH 7, 40 C.): 1.0 % Area
- Hydrolysis to treprostinil, % Area, t = 3 weeks ([9]; pH 7, 40 C.): 1.5 % Area
- Hydrolysis to treprostinil, % Area, t = 1 week ([9]; pH 8, 40 C.): 0.73 % Area
- Hydrolysis to treprostinil, % Area, t = 2 weeks ([9]; pH 8, 40 C.): 1.6 % Area
- Hydrolysis to treprostinil, % Area, t = 3 weeks ([9]; pH 8, 40 C.): 2.6 % Area

Structure (SMILES): CCCCCC(O)CCC1C(O)CC2Cc3c(cccc3OCC(=O)NCC(=O)O)CC21 (centres unmarked) [VII]
- AUC [1]: 0.00 µmol·min/L
- AUC [2]: 0.39 µmol·min/L
- AUC ([3]; rat): 10.79 µmol·min/L
- AUC ([4]; human): 0.00 µmol·min/L
- AUC ([5]; human): 0.00 µmol·min/L
- AUC ([6]; dog): 0.00 µmol·min/L

Structure (SMILES): CCCCCC(CCC1C(O)CC2Cc3cccc(OCC(=O)O)c3CC21)OC(=O)CCC(=O)N1CCN(C)CC1 (centres unmarked) [XXXIV]
- Trep Concentration 0 min ([7]; Liver Microsomes, Dog, 0 min): 0 µM
- Trep Concentration 10 min ([7]; Liver Microsomes, Dog, 10 min): 0 µM
- Trep Concentration 20 min ([7]; Liver Microsomes, Dog, 20 min): 0 µM
- Trep Concentration 30 min ([7]; Liver Microsomes, Dog, 30 min): 0 µM
- Trep Concentration 60 min ([7]; Liver Microsomes, Dog, 60 min): 0.0104 µM
- AUC ([7]; Liver Microsomes, Dog, treprostinil 0-60 min): 0.16 µmol·min/L
- Trep Concentration 0 min ([8]; Liver Microsomes, Rat, 0 min): 0 µM
- Trep Concentration 10 min ([8]; Liver Microsomes, Rat, 10 min): 0 µM
- Trep Concentration 20 min ([8]; Liver Microsomes, Rat, 20 min): 0.0132 µM
- Trep Concentration 30 min ([8]; Liver Microsomes, Rat, 30 min): 0.0158 µM
- Trep Concentration 60 min ([8]; Liver Microsomes, Rat, 60 min): 0.0224 µM
- AUC ([8]; Liver Microsomes, Rat, treprostinil 0-60 min): 0.78 µmol·min/L
- AUC ([3]; Hepatocytes, Rat, AUC of treprostinil concentration 0-120 min): 8.62 µmol·min/L
- Trep Concentration (μM) 0 min ([3]; Hepatocytes, Rat, treprostinil formed from test article dosed, 0 min): 0 µM
- Trep Concentration (μM) 15 min ([3]; Hepatocytes, Rat, treprostinil formed from test article dosed, 15 min): 0.023 µM
- Trep Concentration (μM) 30 min ([3]; Hepatocytes, Rat, treprostinil formed from test article dosed, 30 min): 0.0447 µM
- Trep Concentration (μM) 60 min ([3]; Hepatocytes, Rat, treprostinil formed from test article dosed, 60 min): 0.0915 µM
- Trep Concentration (μM) 120 min ([3]; Hepatocytes, Rat, treprostinil formed from test article dosed, 120 min): 0.105 µM
- Trep Concentration 0 min ([10]; 0 min): 0 µM
- Trep Concentration 30 min ([10]; 30 min): 0 µM
- Trep Concentration 60 min ([10]; 60 min): 0 µM
- Trep Concentration 120 min ([10]; 120 min): 0 µM
- AUC ([10]; treprostinil 0-120 min): 0.00 µmol·min/L
- AUC ([4]; Hepatocytes, Human, AUC of treprostinil concentration 0-120 min): 1.90 µmol·min/L
- Trep Concentration (μM) 0 min ([4]; Hepatocytes, Human, treprostinil formed from test article dosed, 0 min): 0 µM
- Trep Concentration (μM) 15 min ([4]; Hepatocytes, Human, treprostinil formed from test article dosed, 15 min): 0 µM
- Trep Concentration (μM) 30 min ([4]; Hepatocytes, Human, treprostinil formed from test article dosed, 30 min): 0.0107 µM
- Trep Concentration (μM) 60 min ([4]; Hepatocytes, Human, treprostinil formed from test article dosed, 60 min): 0.0174 µM
- Trep Concentration (μM) 120 min ([4]; Hepatocytes, Human, treprostinil formed from test article dosed, 120 min): 0.0293 µM
- Trep Concentration 0 min ([5]; Liver Microsomes, Human, 0 min): 0 µM
- Trep Concentration 10 min ([5]; Liver Microsomes, Human, 10 min): 0 µM
- Trep Concentration 20 min ([5]; Liver Microsomes, Human, 20 min): 0 µM
- Trep Concentration 30 min ([5]; Liver Microsomes, Human, 30 min): 0 µM
- Trep Concentration 60 min ([5]; Liver Microsomes, Human, 60 min): 0 µM
- AUC ([5]; Liver Microsomes, Human, treprostinil 0-60 min): 0.00 µmol·min/L
- AUC ([6]; Hepatocytes, Dog, AUC of treprostinil concentration 0-120 min): 1.30 µmol·min/L
- Trep Concentration (μM) 0 min ([6]; Hepatocytes, Dog, treprostinil formed from test article dosed, 0 min): 0 µM
- Trep Concentration (μM) 15 min ([6]; Hepatocytes, Dog, treprostinil formed from test article dosed, 15 min): 0 µM
- Trep Concentration (μM) 30 min ([6]; Hepatocytes, Dog, treprostinil formed from test article dosed, 30 min): 0.0101 µM
- Trep Concentration (μM) 60 min ([6]; Hepatocytes, Dog, treprostinil formed from test article dosed, 60 min): 0.0153 µM
- Trep Concentration (μM) 120 min ([6]; Hepatocytes, Dog, treprostinil formed from test article dosed, 120 min): 0.0127 µM
